Measurements reported in US20140234212A1, “Targeted Buccal Delivery of Agents” (Massachusetts Institute of Technology, priority 2013, published 2014).
Where two headings read alike, the source gives them in different places. Blank lines part the entries; values can stand above or below the molecule they belong to.

Key:
[1] = format: in vitro ADME, pig; conditions: not told
Description: FITC labeled chitosan NPs were used.
b) Ethanol (100% Ethanol diluted with 50% PBS) c) 2-Dimethylaminopropionic acid dodecyl ester (DDAIP) (“DDAIP”) (2 g/100 ml diluted in PBS) d) Ethanol+DDAIP (100% Ethanol diluted with 4 g/100 ml of DDAIP to achieve the same final working concentration of Ethanol and DDAIP as used in (b) and (c) respectively. e) TDCA (100 mM diluted in PBS)
Fresh pig tongue was obtained from the Butcher shop at Cambridge. The middle portion of the tongue was selected for these studies. 5 designated sections were chosen on this portion and 0.75 mL of each of these PEs were applied at each of these sections, followed by the addition of the wafers (25 mg each) with additional 0.75 mL of PEs on top of the wafers. The incubation was done in the dark at RT for 1 hour. The tongue was then washed with water and all the wafers were removed from their designated sections. The respective sections were individually cut and embedded into an OCT for sectioning using a microtome. 50 microns slices were cut from each of these sections and 2 slices were placed on slides. The slides were kept submerged in water for 3 hours to remove any bound OCT as it interferes with the image quality. Following that, each of the slides from different sections were mounted with cover slips using a DAPI containing mounting media and imaged using a fluorescence microscope. Images were taken at 4×, 10× and 20× in both FITC and DAPI channels. In addition, slices of untreated tongue were also cut and imaged to account for inherent fluorescence of the tongue. However, before conducting permeation studies, many experiments were performed to discover the optimal concentrations of PEs that would not result in significant modifications to out current wafer synthesis protocol and allow seamless integration into the wafer.

[2] = tested on: HCPC 1 (hamster cheek pouch carcinoma) cells; assay: MTS cell viability assay; format: cell-based; conditions: HCPC 1 cells, 48 h
Description: A cell viability study of 33% cisplatin-loaded nanoparticles was also conducted using the tetrazolium compound (3-(4,5-dimethylthiazol-2-yl)-5-(3-carboxymethoxy phenyl)-2-(4-sulfophenyl)-2H-tetrazolium inner salt, MTS. When incorporated by the cells, MTS is bioreduced by metabolically active cells. The amount of […] is directly proportional to the number of living cells in culture.

[3] = tested on: hamster cheek pouch carcinoma (HCPC1) tumors; assay: Tumor inhibition and weight change in HCPC1 allografted hamsters; format: in vivo, Golden Syrian hamsters; conditions: 1.15 mg/kg cisplatin equivalent; sponge topically, free cisplatin intraperitoneally
Description: Golden Syrian hamsters, 71-80 g, were anesthetized and prepared for implantation of the tumor cells. Hamster cheek pouch carcinoma (HCPC 1) cells were collected from culture, and 1×10^8 cells suspended in PBS buffer were then injected subcutaneously into the cheek pouch of a hamster. After 7 days when tumors reached around 100 mm^3 in size, hamsters were divided into 4 groups, minimizing weight and tumor size difference. […] Two doses were administrated with 3-day interval. After treatments, the animals were monitored closely, and measurements of the tumor size and body weight for each animal were performed at regular intervals using calipers without knowledge of which injection each animal had received. The tumor volume for each time point was calculated according to the formula, (length)×(width)^2/2, where the long axis is the length, the short axis is the width.

Permeation Depth [1]: 100 microns
SMILES: C[C@H](CCC(=O)NCCS(=O)(=O)O)[C@H]1CC[C@H]2[C@@H]3CC[C@@H]4C[C@H](O)CC[C@]4(C)[C@H]3C[C@H](O)[C@]12C [TDCA]

SMILES: N.N.[Cl][Pt][Cl] [free cisplatin, cis-diamminedichloroplatinum(ll)]
IC50 [2]: ~60 nM | tumor inhibition [3]: comparable decrease in tumor size | weight change [3]: significant weight loss

Permeation Depth ([1]; pig, 1 hour): 140 microns
SMILES: CCO [Ethanol]

Permeation Depth ([1]; pig, 1 hour): 200 microns | depth permeated by the NPs ([1]; pig, 1 hour, 2 g/100 ml): 200 μm
SMILES: CCCCCCCCCCCCOC(=O)C(C)N(C)C (stereo not shown) [DDAIP, 2-Dimethylaminopropionic acid dodecyl ester]
